Source: patent publication US8859543B2, “Imidazo[1,2-a]pyrazine derivatives and their use for the prevention or treatment of neurological, psychiatric and metabolic disorders and diseases” (Janssen Pharmaceutica NV, priority 2010, dated 2014)
Where two headings read alike, the source gives them in different places.

Columns and labels:
[1] = molecular target: T1, Rat recombinant PDE10A (rPDE10A2) (Rattus norvegicus, UniProt Q9QYJ6); assay: In vitro assay PDE10A (SPA, 3H-cAMP); assay type: biochemical; conditions: pIC50 corresponds to the -log IC50 expressed in mol/L; for IC50: read-out: PDE10A2 pIC50 (converted)
T1 construct: made in house; host or cells: Sf9 insect cells, baculovirus
T1 sequence (Q9QYJ6 1-794): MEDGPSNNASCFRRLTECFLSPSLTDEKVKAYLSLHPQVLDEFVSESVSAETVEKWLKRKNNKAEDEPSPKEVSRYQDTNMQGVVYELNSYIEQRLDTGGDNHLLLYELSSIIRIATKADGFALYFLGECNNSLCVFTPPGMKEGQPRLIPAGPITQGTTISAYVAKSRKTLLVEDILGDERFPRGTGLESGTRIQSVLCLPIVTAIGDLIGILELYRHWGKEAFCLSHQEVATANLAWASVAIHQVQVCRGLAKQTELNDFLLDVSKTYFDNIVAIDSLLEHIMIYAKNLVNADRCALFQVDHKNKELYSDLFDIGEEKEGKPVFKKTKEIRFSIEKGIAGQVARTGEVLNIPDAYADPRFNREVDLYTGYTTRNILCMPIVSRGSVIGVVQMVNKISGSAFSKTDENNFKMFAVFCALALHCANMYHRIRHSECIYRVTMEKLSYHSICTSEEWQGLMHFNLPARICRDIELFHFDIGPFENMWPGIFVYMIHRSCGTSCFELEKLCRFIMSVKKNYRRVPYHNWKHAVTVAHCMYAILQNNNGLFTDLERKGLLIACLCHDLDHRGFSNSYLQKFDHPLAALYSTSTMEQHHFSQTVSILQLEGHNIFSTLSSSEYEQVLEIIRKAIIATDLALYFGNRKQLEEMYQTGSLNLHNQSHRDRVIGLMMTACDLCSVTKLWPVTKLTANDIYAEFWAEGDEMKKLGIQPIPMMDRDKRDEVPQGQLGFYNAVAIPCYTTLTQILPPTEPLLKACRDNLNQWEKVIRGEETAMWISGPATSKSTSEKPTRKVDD
Method: Rat recombinant PDE10A (rPDE10A2) was expressed in Sf9 cells using a recombinant rPDE10A baculovirus construct. Cells were harvested after 48 h of infection and the rPDE10A protein was purified by metal chelate chromatography on Ni-sepharose 6FF. Tested compounds were dissolved and diluted in 100% DMSO to a concentration 100 fold of the final concentration in the assay. Compound dilutions (0.4 μl) were added in 384 well plates to 20 μl of incubation buffer (50 mM Tris pH 7.8, 8.3 mM MgCl2, 1.7 mM EGTA). 10 μl of rPDE10A enzyme in incubation buffer was added and the reaction was started by addition of 10 μl substrate to a final concentration of 60 nM cAMP and 0.008 μCi ^3H-cAMP. The reaction was incubated for 60 min. at RT. […] After sedimentation of the beads during 30 min. the radioactivity was measured in a Perkin Elmer Topcount scintillation counter and results were expressed as cpm. For blank values the enzyme was omitted from the reaction and replaced by incubation buffer. Control values were obtained by addition of a final concentration of 1% DMSO instead of compound. The same assay principle is applied for the measurement of the affinity of the compound for other members of the PDE family with appropriate modifications in incubation buffer, substrate concentration, incubation time and stop solution.

[2] = test system: apomorphine-induced stereotypy; assay: Apomorphine-induced stereotypy in rats (APO); assay type: in vivo; conditions: Rattus norvegicus
Method: Apomorphine-Induced Stereotypy in Rats (APO)
Apomorphine (1.0 mg/kg, i.v.)-induced stereotypy (compulsive sniffing, licking, chewing) was scored every 5 min. over the first hour after injection of apomorphine, following a 1 hour interval pre-treatment with the test compound. The score system was: (3) pronounced, (2) moderate, (1) slight, and (O) absent.

[3] = not active at 2.5 or at 10 mg/kg, not further tested, read-out: APO ED50 (not active at threshold dose)
[4] = po, * compound was not soluble and was tested orally as a suspension, read-out: APO ED50

| IC50 [1] [µM] | SMILES | ED50 ([2]; read-out: APO ED50) [mg/kg] | ED50 [2, 3] [mg/kg] | PDE10A2 pIC50 [1] | ED50 [2, 4] [mg/kg] |
| --- | --- | --- | --- | --- | --- |
| 0.135 | Cc1nc2c(N3CCOCC3)nccn2c1-c1ccnc(N2CCOCC2)c1 [compound 91] |  | > 2.5 |  |  |
| 0.0955 | CCC(COC)n1cc(-c2c(C)nc3c(N4CCOCC4)nccn23)cn1 (single isomer, unassigned) [compound 74] |  | > 2.5 |  |  |
|  | COCCn1cc(-c2c(C#N)nc3c(N4CCOCC4)nccn23)cn1 [compound 40, 3-[1-(2-Methoxy-ethyl)-1H-pyrazol-4-yl]-8-morpholin-4-yl-imidazo[1,2-a]pyrazine-2-carbonitrile] | 5 |  | 7.07 |  |
| 0.372 | Cc1nc2c(N3CCOCC3)nccn2c1-c1cnn(Cc2ccc(Cl)cc2)c1 [compound 121] |  | > 2.5 |  |  |
| 0.724 | Cc1nc2c(-c3ccncc3)nccn2c1-c1cnn(CCO)c1 [compound 138] |  | > 2.5 |  |  |
| 0.174 | COC(C)(C)COc1ccc(-c2c(C3CC3)nc3c(N4CCOCC4)nccn23)cn1 [compound 105] |  | > 2.5 |  |  |
| 0.263 | Cc1nc2c(N3CCOCC3)nccn2c1-c1cnc(C(C)C)[nH]1 [compound 114] |  | > 2.5 |  |  |
|  | Cc1nc2c(N3CCOCC3)nccn2c1-c1cnn(Cc2ccncc2)c1 [compound 77] | ≤ 10 |  | 6.99 |  |
|  | CCn1cc(-c2c(C)nc3c(N4CCOCC4)nccn23)cn1 [compound 38, 3-(1-Ethyl-1H-pyrazol-4-yl)-2-methyl-8-morpholin-4-yl-imidazo[1,2-a]pyrazine] | ≤ 10 |  | 6.63 |  |
| 0.0832 | c1cn2c(-c3ccc(N4CCOCC4)nc3)c(C3CC3)nc2c(N2CCOCC2)n1 [compound 63] |  | > 2.5 |  |  |
|  | Cc1nc2c(N3CCOCC3)nccn2c1-c1cnn(CC(F)(F)F)c1 [compound 49] | 5 |  | 7.33 |  |
| 0.219 | CCC(COC)n1cc(-c2c(C)nc3c(N4CCOCC4)nccn23)cn1 (stereo not drawn) [compound 111] |  | > 2.5 |  |  |
| 0.0575 | Cc1nc2c(N3CCOCC3)nccn2c1-c1cnn(CC(F)F)c1 [compound 56] |  |  |  | 3.1 |
| 0.0741 | Cc1nc2c(N3CCOCC3)nccn2c1-c1ccnc(CC(C)C)c1 [compound 27, 3-(2-Isobutyl-pyridin-4-yl)-2-methyl-8-morpholin-4-yl-imidazo[1,2-a]pyrazine] |  | > 2.5 |  |  |
| 0.115 | c1cn2c(-c3ccc(C4CCOCC4)nc3)c(C3CC3)nc2c(N2CCOCC2)n1 [compound 83] |  | > 2.5 |  |  |
| 0.141 | COc1nc2c(N3CCOCC3)nccn2c1-c1ccc(CC(C)(C)OC)nc1 [compound 95] |  | > 2.5 |  |  |
| 0.0977 | Cc1nc2c(N3CCOCC3)nccn2c1-c1ccnc(NC(C)C)c1 [compound 22, Isopropyl-[4-(2-methyl-8-morpholin-4-yl-imidazo[1,2-a]pyrazin-3-yl)-pyridin-2-yl]-amine] |  | > 2.5 |  |  |
|  | Cc1nc2c(N3CCOCC3)nccn2c1-c1cnn(Cc2ccccc2Cl)c1 [compound 94] |  | > 2.5 | 6.86 |  |
| 0.0794 | Cc1nc2c(N3CCOCC3)nccn2c1-c1cnn(CC2CC2)c1 [compound 62] |  | > 2.5 |  |  |
| 0.575 | COCCc1ccc(-c2cnc3c(N4CCOCC4)nccn23)cn1 [compound 136] |  | > 2.5 |  |  |
| 0.126 | c1cn2c(-c3ccc(N4CCNCC4)nc3)c(C3CC3)nc2c(N2CCOCC2)n1 [compound 87] |  | > 2.5 |  |  |
| 0.275 | Cc1nc2c(N3CCOCC3)nccn2c1-c1cnn(CCN2CCOCC2)c1 [compound 116] |  | > 2.5 |  |  |
|  | COCCc1ccc(-c2c(C(C)C)nc3c(N4CCOCC4)nccn23)cn1 [compound 13, 2-Isopropyl-3-[6-(2-methoxy-ethyl)-pyridin-3-yl]-8-morpholin-4-yl-imidazo[1,2-a]pyrazine] |  | > 2.5 |  |  |
|  | Cc1nc2c(N3CCOCC3)nccn2c1-c1ccc(CCOC(C)C)nc1 [compound 21, 3-[6-(2-Isopropoxy-ethyl)-pyridin-3-yl]-2-methyl-8-morpholin-4-yl-imidazo[1,2-a]pyrazine] | 1.2 |  |  |  |
|  | COCCOc1ccc(-c2c(C)nc3c(N4CCOCC4)nccn23)cn1 [compound 1, 3-[6-(2-Methoxy-ethoxy)-pyridin-3-yl]-2-methyl-8-morpholin-4-yl-imidazo[1,2-a]pyrazine] |  |  |  | 0.8 |
|  | Cc1nc2c(N3CCOCC3)nccn2c1-c1ccc(NC(C)C)nc1 [compound 103] |  | > 2.5 |  |  |
|  | COC(C)(C)Cc1ccc(-c2c(C)nc3c(N4CCOCC4)nccn23)cn1 [compound 7, 3-[6-(2-Methoxy-2-methyl-propyl)-pyridin-3-yl]-2-methyl-8-morpholin-4-yl-imidazo[1,2-a]pyrazine] | 1.2 |  |  |  |
|  | CCOCc1ccc(-c2c(C)nc3c(N4CCOCC4)nccn23)cn1 [compound 5, 3-(6-Ethoxymethyl-pyridin-3-yl)-2-methyl-8-morpholin-4-yl-imidazo[1,2-a]pyrazine] |  | > 2.5 |  |  |
|  | Cc1nc2c(N3CCOCC3)nccn2c1-c1ccc(N2CCCC2)nc1 [compound 123] |  | > 2.5 |  |  |

| SMILES | IC50 [1] [µM] | ED50 ([2]; read-out: APO ED50) [mg/kg] | ED50 [2, 3] [mg/kg] | PDE10A2 pIC50 [1] | ED50 [2, 4] [mg/kg] |
| --- | --- | --- | --- | --- | --- |
| Cc1nc2c(N3CCOCC3)nccn2c1-c1cnn(CC2CCOCC2)c1 [compound 89] | 0.135 | ≤ 10 |  |  |  |
| COC(C)CCn1cc(-c2c(C)nc3c(N4CCOCC4)nccn23)cn1 (single isomer, unassigned) [compound 61] | 0.0794 | 5 |  |  |  |
| Cc1nc2c(N3CCOCC3)nccn2c1-c1cnn(CC2CCCO2)c1 (single isomer, unassigned) [compound 90] | 0.135 |  | > 2.5 |  |  |
| COC(C)CCn1cc(-c2c(C)nc3c(N4CCOCC4)nccn23)cn1 (single isomer, unassigned) [compound 84] | 0.117 |  | > 2.5 |  |  |
| Cc1nc2c(N3CCOCC3)nccn2c1-c1ccc(OCC2CC2)nc1 [compound 134] | 0.562 | ≤ 10 |  |  |  |
| COC[C@H](C)n1cc(-c2c(C)nc3c(-c4ccncc4)nccn23)cn1 [compound 79] | 0.107 | 5 |  |  |  |
| Cc1nc2c(N3CCOCC3)nccn2c1-c1cnn(Cc2ccccn2)c1 [compound 76] | 0.102 | 3.1 |  |  |  |
| COC(C)(C)CCc1ccc(-c2c(C)nc3c(N4CCOCC4)nccn23)cn1 [compound 29, 3-[6-(3-Methoxy-3-methyl-butyl)-pyridin-3-yl]-2-methyl-8-morpholin-4-yl-imidazo[1,2-a]pyrazine] | 0.219 | 1.2 |  |  |  |
| COC[C@@H](C)n1cc(-c2c(C)nc3c(-c4ccncc4)nccn23)cn1 [compound 104] | 0.17 | 5 |  |  |  |
| CO[C@@H](C)Cn1cc(-c2c(C)nc3c(-c4ccncc4)nccn23)cn1 [compound 101] | 0.162 | 3.1 |  |  |  |
| COC(C)(C)COc1ccc(-c2c(C)nc3c(N4CCOCC4)nccn23)cn1 [compound 3, 3-[6-(2-Methoxy-2-methyl-propoxy)-pyridin-3-yl]-2-methyl-8-morpholin-4-yl-imidazo[1,2-a]pyrazine] | 0.457 | 5 |  |  |  |
| Cc1nc2c(-c3ccncc3)nccn2c1-c1ccc(N2CCOCC2)nc1 [compound 115] | 0.263 | 5 |  |  |  |
| Cc1nc2c(N3CCOCC3)nccn2c1-c1cnn(CC2CCCCO2)c1 (single isomer, unassigned) [compound 58] | 0.0676 |  | > 2.5 |  |  |
| COCCn1cc(-c2cnc3c(N4CCOCC4)nccn23)cn1 [compound 141] | 0.955 | 5 |  |  |  |
| COCCCn1cc(-c2c(C)nc3c(N4CCOCC4)nccn23)cn1 [compound 68] | 0.0871 | 3.1 |  |  |  |
